In patent US20190083462A1, “PREVENTION OF NSAID ENTEROPATHY WITH MICROBIOTA-DERIVED TRYPTOPHAN-METABOLITE” (THE TEXAS A&M UNIVERSITY SYSTEM, priority 2016, published 2019):

Tested on: fecal microbiota
Assay: Inferred metagenome of the fecal microbiota (PICRUSt, SIMPER)
Assay type: in vivo, mice
Settings: for mean % abundance: day 7 feces
Experimental: Eight- to 10-week-old specific-pathogen-free C57BL/6J mice were purchased and allowed to acclimate for 2 weeks. Mice were fed standardized laboratory rodent diet and sterile water ad libitum. […] Mice were then rehoused on the basis of treatment group assignment, with 5 animals/group-cage. To induce NSAID enteropathy, mice in group 1 were gavaged once daily with indomethacin (5 mg/kg; for 7 days; Sigma Aldrich, St. Louis, Mo.) dissolved in dimethylysulfoxide (DMSO) (Sigma Aldrich, St. Louis, Mo.) and further diluted in phosphate buffered saline (PBS). […] Sigma Aldrich, St. Louis, Mo.) dissolved in sterile water warmed to 55° C. […] All mice were gavaged with equal volumes (200 μL) and equal concentrations of DMSO (0.001%). Feces were collected daily by placing individual animals in sterile plastic cups that were RNase- and DNase-free until they passed feces. The mice were immediately returned to their home cages and the feces immediately flash frozen at -80° C. All animals were euthanized via CO2 asphyxiation on day 8 (i.e., after 7 days of treatment). […] Life Technologies, Carlsbad, Calif.), homogenized, and prepared as a single cell suspension for flow cytometric analysis as previously described (Wang […]. Measuring bacterial load and immune responses in mice infected with Listeria monocytogenes. Journal of Visualized Experiments: JoVE 2011). The software Phylogenetic Investigation of Communities by Reconstruction of Unobserved States (PICRUSt) was used to predict the metagenome ([…], Knights […] Thurber R L, Knight R, et al. Predictive functional profiling of microbial communities using 16S rRNA marker gene sequences. Nature Biotechnology 2013; 31:814-21). Sequencing data were prepared as described above, but sequences were then clustered into OTUs using a closed-reference OTU picking protocol at the 97% sequencing identity level [http://qiime.org/scripts/pick_closed_reference_otus.html]. The resulting OTU table was normalized by the expected copy number(s) of the 16s rRNA gene in each OTU. PICRUSt was then used to predict the metagenome [https://picrust.github.io/picrust/tutorials/metagenome_prediction.html#metagenome-prediction-tutorial]. Each sample was rarefied to an even sequencing depth to adjust for uneven sequencing depth prior to further analysis. Differences in the metagenomes among the groups were investigated by visual assessment of clustering on PCA and by analysis of similarity (ANOSIM) calculated on Bray Curtis dissimilarity metric.

[1] = Unclassified, Metabolism, Energy metabolism
[2] = Unclassified, Metabolism, Others

## COc1ccc2c(c1)c(CC(=O)O)c(C)n2C(=O)c1ccc(Cl)cc1 [NSAID, indomethacin]
Alanine, aspartate and glutamate metabolism
  vs. Control Direction: ↓
Amino Acid related enzymes
  vs. Control Direction: ↑
Carbohydrate Metabolism, Citrate cycle (TCA cycle)
  vs. Control Direction: ↑
Cell Motility, Bacterial chemotaxis
  vs. Control Direction: ↑
Cell Motility, Bacterial motility proteins
  vs. Control Direction: ↑
Cell Motility, Flagellar assembly
  vs. Control Direction: ↑
Cellular Processes and Signalling, Sporulation
  vs. Control Direction: ↑
Cellular Processes, Cell Motility, Bacterial chemotaxis
  mean % abundance: 1.30%
Cellular Processes, Cell Motility, Bacterial motility proteins
  mean % abundance: 0.81%
Cellular Processes, Cell Motility, Flagellar assembly
  mean % abundance: 0.91%
Chaperones and folding catalysts
  vs. Control Direction: ↓
Energy Metabolism, Carbon fixation pathways in prokaryotes
  vs. Control Direction: ↓
Energy Metabolism, Oxidative phosphorylation
  vs. Control Direction: ↑
Environmental Information Processing, Membrane Transport, ABC transporters
  mean % abundance: 1.71%
Environmental Information Processing, Membrane Transport, Phosphotransferase system (PTS)
  mean % abundance: 0.18%
Environmental Information Processing, Membrane Transport, Transporters
  mean % abundance: 3.82%
Environmental Information Processing, Signal Transduction, Two-component system
  mean % abundance: 0.20%
Folate biosynthesis
  vs. Control Direction: ↑
Genetic Information Processing, Folding, Sorting and Degradation, Chaperones and folding catalysts
  mean % abundance: 0.61%
Genetic Information Processing, Replication and Repair DNA repair and recombination proteins
  mean % abundance: 3.12%
Genetic Information Processing, Replication and Repair, DNA replication proteins
  mean % abundance: 0.50%
Genetic Information Processing, Replication and Repair, Homologous recombination
  mean % abundance: 2.12%
Genetic Information Processing, Transcription, Transcription factors
  mean % abundance: 0.31%
Genetic Information Processing, Translation Ribosome Biogenesis
  mean % abundance: 0.70%
Genetic Information Processing, Translation, Ribosome
  mean % abundance: 2.94%
Lipopolysaccharide biosynthesis
  vs. Control Direction: ↑
Lipopolysaccharide biosynthesis proteins
  vs. Control Direction: ↑
Membrane Transport, ABC transporters
  vs. Control Direction: ↓
Membrane Transport, Phosphotransferase system (PTS)
  vs. Control Direction: ↓
Membrane Transport, Transporters
  vs. Control Direction: ↓
Membrane and intracellular structural molecules
  vs. Control Direction: ↓
Metabolism, Amino Acid Metabolism, Alanine, aspartate and glutamate metabolism
  mean % abundance: 1.14%
Metabolism, Amino Acid Metabolism, Amino Acid related enzymes
  mean % abundance: 1.65%
Metabolism, Carbohydrate Metabolism, Citrate cycle (TCA cycle)
  mean % abundance: 1.25%
Metabolism, Energy Metabolism, Carbon fixation pathways in prokaryotes
  mean % abundance: 0.40%
Metabolism, Energy Metabolism, Oxidative phosphorylation
  mean % abundance: 1.65%
Metabolism, Glycan Biosynthesis and Metabolism, Lipopolysaccharide biosynthesis proteins
  mean % abundance: 1.48%
Metabolism, Glycan Biosynthesis and Metabolism, Lipopolysaccharide biosynthesis
  mean % abundance: 1.55%
Metabolism, Glycan Biosynthesis and Metabolism, Other glycan degradation
  mean % abundance: 1.27%
Metabolism, Metabolism of Cofactors and Vitamins, Folate biosynthesis
  mean % abundance: 1.66%
Metabolism, Metabolism of Cofactors and Vitamins, One carbon pool by folate
  mean % abundance: 0.49%
Metabolism, Metabolism of Cofactors and Vitamins, Porphyrin and chlorophyll metabolism
  mean % abundance: 2.42%
Metabolism, Nucleotide Metabolism, Purine metabolism
  mean % abundance: 0.90%
Metabolism, Nucleotide Metabolism, Pyrimidine metabolism
  mean % abundance: 2.24%
Nucleotide Metabolism, Purine metabolism
  vs. Control Direction: ↓
Nucleotide Metabolism, Pyrimidine metabolism
  vs. Control Direction: ↑
One carbon pool by folate
  vs. Control Direction: ↓
Other glycan degradation
  vs. Control Direction: ↑
Pores ion channels
  vs. Control Direction: ↑
Porphyrin and chlorophyll metabolism
  vs. Control Direction: ↑
Replication and Repair DNA repair and recombination proteins
  vs. Control Direction: ↑
Replication and Repair, DNA replication proteins
  vs. Control Direction: ↓
Replication and Repair, Homologous recombination
  vs. Control Direction: ↑
Signal Transduction, Two-component system
  vs. Control Direction: ↓
Transcription, Transcription factors
  vs. Control Direction: ↓
Translation Ribosome Biogenesis
  vs. Control Direction: ↓
Translation, Ribosome
  vs. Control Direction: ↑
Unclassified, Cellular Processes and Signaling, Pores ion channels
  mean % abundance: 3.54%
Unclassified, Cellular Processes and Signalling, Membrane and intracellular structural molecules
  mean % abundance: 0.17%
Unclassified, Cellular Processes and Signalling, Sporulation
  mean % abundance: 1.00%
[1]
  vs. Control Direction: ↑
  mean % abundance: 1.25%
[2]
  vs. Control Direction: ↑
  mean % abundance: 0.84%
